Laboratory results: ChEMBL document CHEMBL4033745, “3D-QSAR (CoMFA, CoMSIA), molecular docking and molecular dynamics simulations study of 6-aryl-5-cyano-pyrimidine derivatives to explore the structure requirements of LSD1 inhibitors” (Bioorg Med Chem Lett, 2017)

Molecular target: Lysine-specific histone demethylase 1A (Homo sapiens, UniProt O60341)
Assay: Inhibition of LSD1 (unknown origin)

C#CCSc1nc(Nc2ccc(Cl)cc2)c(C#N)c(-c2ccccc2)n1
IC50 (read-out: IC50): 125 µM

C#CCSc1nc(Nc2ccc(F)cc2)c(C#N)c(-c2ccccc2)n1
IC50 (read-out: IC50): 125 µM

C#CCSc1nc(Nc2ccc([N+](=O)[O-])cc2)c(C#N)c(-c2ccccc2)n1
IC50 (read-out: IC50): 125 µM | IC50 (read-out: pIC50 (converted)): 123 µM

C#CCSc1nc(Cl)c(C#N)c(-c2ccc([N+](=O)[O-])cc2)n1
IC50 (read-out: IC50): 125 µM

N#Cc1c(Cl)nc(SCc2cn(Cc3ccccc3Cl)nn2)nc1-c1ccc(Cl)cc1
IC50 (read-out: IC50): 125 µM

COc1cc(-c2nc(SCc3ccc(F)cc3)nc(NNC(N)=S)c2C#N)cc(OC)c1OC
IC50 (read-out: IC50): 125 µM
